Experimental data published in patent publication US20240390396A1 (priority 2021, published 2024).
Several values for one entry are separate records, joined by “and”; a condition that tells them apart may be missing. Equal entries are not always repeated. Where two headings read alike, the source gives them in different places.

How the values were obtained:
RAW 264.7 macrophages = test: Nitric oxide (NO) secretion by LPS-activated macrophages (Griess reagent); assay type: cell-based; settings: for effect of ECS receptor antagonists alone on NO secretion: 24 h (FIG. 5B)
Method: NO secretion was determined by measuring the amount of nitrite, using a Griess reagent (Promega) according to manufacturer's protocol. Briefly, 50 μl of supernatant was added to 96-well plate, followed by 50 μl sulphanilamide and 50 μl N−1-napthylethylenediamine dihydrochloride (NED). The optical densities were quantified using a multi-well spectrophotometer, and nitrite concentrations were estimated using a standard nitrite curve. Results were calculated as the percentage of control cultures.
The poor bioavailability of CBD may hamper its effectiveness as an anti-inflammatory drug. To test whether antagonists of the ECS may potentiate the anti-inflammatory effect of CBD, the inventors used the RAW 264.7 macrophages as a model system for inflammation. Exposure of cells to bacterial lipopolysaccharide (LPS) initiates a signal transduction cascade that leads to increased production of nitrite oxide (NO), secretion of pro-inflammatory cytokines, and acquisition of enhanced bactericidal activity.
First, the inventors studied the response of LPS-activated RAW 264.7 cells to CBD. Cells were cultured with LPS, with/without CBD at 0.63-5 μM concentrations for 24 hrs. Supernatants were harvested for measuring NO by spectrophotometry using the Greiss reagent. […] To test whether antagonists of the ECS can modify the anti-inflammatory activity of CBD, the inventors further exposed the cells to LPS, CBD, ECS antagonists (detailed in Table 2), and their combinations. Two distinct CB2 antagonists (AM630 and COR170) were tested, as CB2 is known to be involved in the regulation of inflammation.

MCF7 cells = assay type: cell-based; settings: 24 h; cannabis containing 4 μM CBD; 32 μM capsazepine; 400 μM capsaicin; 5 μM thapsigargin; alone or combined
MDA-MB-231 cells = settings: 24 h
T47D cells = assay type: cell-based; settings: 24 h; cannabis containing 4 μM CBD; 32 μM capsazepine; 400 μM capsaicin; 5 μM thapsigargin; alone or combined
MDA-MB-468 cells = assay type: cell-based; settings: 24 h; 1:2 dilution of the original doses: cannabis containing 2 μM CBD; 16 μM capsazepine; capsaicin and thapsigargin diluted 1:2 from 400 μM and 5 μM; alone or combined
[1] = cannabis containing 4 μM CBD, 400 μM capsaicin, 5 μM thapsigargin, alone or combined

CCC(=O)NC[C@H](Cc1ccc(OCCc2nc(-c3ccccc3)oc2C)cc1)N/C(C)=C\C(=O)c1ccc(C(F)(F)F)cc1 [GW6471]
effect of ECS receptor antagonists alone on NO secretion (RAW 264.7 macrophages): mild effect on NO secretion

C/C=C(/C)C(=O)O[C@H]1C(C)=C2[C@H]([C@@H]1OC(=O)CCCCCCC)[C@@](C)(OC(C)=O)C[C@H](OC(=O)CCC)[C@@]1(O)[C@H]2OC(=O)[C@@]1(C)O [thapsigargin]
cell survival (MCF7 cells): 24±6% | cell survival (MDA-MB-231 cells; [1]): 34±23% | cell survival (T47D cells): 72±7%

COc1cc(CNC(=O)CCCC/C=C/C(C)C)ccc1O [capsaicin]
cell survival (MCF7 cells): 19±9% | cell survival (MDA-MB-231 cells; [1]): 34±25% | cell survival (T47D cells): 39±11% | cell survival (MDA-MB-468 cells): 60±11% and 62±9%

C=C(C)[C@@H]1CCC(C)=C[C@H]1c1c(O)cc(CCCCC)cc1O [CBD, cannabidiol]
NO secretion, dose response (RAW 264.7 macrophages; 24 h, CBD 0.63-5 μM (FIG. 5A)): reduced NO secretion in a dose dependent manner | activity at 2.5 µM (RAW 264.7 macrophages; Mus musculus, RAW264.7, 24 h, 2.5 μM CBD, with or without 10 μM capsazepine, read-out: NO secretion, % of control cells treated with vehicle (DMSO)): 6 ± 5% | cell survival (MDA-MB-231 cells; 2.5 μM pure CBD, with or without 32 μM capsazepine (FIG. 1D)): 72±13%

Oc1cc2c(cc1O)CN(C(=S)NCCc1ccc(Cl)cc1)CCC2 [capsazepine]
effect of ECS receptor antagonists alone on NO secretion (RAW 264.7 macrophages): mild effect on NO secretion | cell survival (MCF7 cells): 40±7% | effect of ECS receptor antagonist on cytotoxic activity of cannabis (MDA-MB-231 cells; co-treatment with CBD-enriched cannabis (FIG. 1B)): enhanced the cytotoxic effect of cannabis | cell survival (T47D cells): 37±21% | cell survival (MDA-MB-468 cells): 80±9%
